The compounds below were run against recombinant human integrin αvβ6 (Homo sapiens (Human), UniProt P06756+P18564) (assay: Solid phase integrin αvβ6 binding assay). Details: plate-coated integrin; recombinant TGFβ1 LAP 0.67 ug/ml as ligand; 2 hours at 25° C.; read-out: αvβ6 Inhibition IC50 (nM) - range.
Experimental: Example B1—Solid Phase Integrin αvβ6 Binding Assay
Microplates were coated with recombinant human integrin αvβ6 (2 ug/ml) in PBS (100 ul/well 25° C., overnight). The coating solution was removed, washed with wash buffer (0.05% Tween 20; 0.5 mM MnCl2; in 1×TBS). Plate was blocked with 200 ul/well of Block Buffer (1% BSA; 5% sucrose; 0.5 mM MnCl2; in 1×TBS) at 37° C. for 2 h. Dilutions of testing compounds and recombinant TGFβ1 LAP (0.67 ug/ml) in binding buffer (0.05% BSA; 2.5% sucrose; 0.5 mM MnCl2; in 1×TBS) were added. The plate was incubated for 2 hours at 25° C., washed, and incubated for 1 hour with Biotin-Anti-hLAP. Bound antibody was detected by peroxidase-conjugated streptavidin. The IC50 values for testing compounds were calculated by a four-parameter logistic regression.
The compounds tested were compound samples prepared according to procedures described in the Synthetic Examples section, with the stereochemical purity as indicated in the Examples indicated.

recombinant human integrin αvβ6, sequence (P06756 31-992): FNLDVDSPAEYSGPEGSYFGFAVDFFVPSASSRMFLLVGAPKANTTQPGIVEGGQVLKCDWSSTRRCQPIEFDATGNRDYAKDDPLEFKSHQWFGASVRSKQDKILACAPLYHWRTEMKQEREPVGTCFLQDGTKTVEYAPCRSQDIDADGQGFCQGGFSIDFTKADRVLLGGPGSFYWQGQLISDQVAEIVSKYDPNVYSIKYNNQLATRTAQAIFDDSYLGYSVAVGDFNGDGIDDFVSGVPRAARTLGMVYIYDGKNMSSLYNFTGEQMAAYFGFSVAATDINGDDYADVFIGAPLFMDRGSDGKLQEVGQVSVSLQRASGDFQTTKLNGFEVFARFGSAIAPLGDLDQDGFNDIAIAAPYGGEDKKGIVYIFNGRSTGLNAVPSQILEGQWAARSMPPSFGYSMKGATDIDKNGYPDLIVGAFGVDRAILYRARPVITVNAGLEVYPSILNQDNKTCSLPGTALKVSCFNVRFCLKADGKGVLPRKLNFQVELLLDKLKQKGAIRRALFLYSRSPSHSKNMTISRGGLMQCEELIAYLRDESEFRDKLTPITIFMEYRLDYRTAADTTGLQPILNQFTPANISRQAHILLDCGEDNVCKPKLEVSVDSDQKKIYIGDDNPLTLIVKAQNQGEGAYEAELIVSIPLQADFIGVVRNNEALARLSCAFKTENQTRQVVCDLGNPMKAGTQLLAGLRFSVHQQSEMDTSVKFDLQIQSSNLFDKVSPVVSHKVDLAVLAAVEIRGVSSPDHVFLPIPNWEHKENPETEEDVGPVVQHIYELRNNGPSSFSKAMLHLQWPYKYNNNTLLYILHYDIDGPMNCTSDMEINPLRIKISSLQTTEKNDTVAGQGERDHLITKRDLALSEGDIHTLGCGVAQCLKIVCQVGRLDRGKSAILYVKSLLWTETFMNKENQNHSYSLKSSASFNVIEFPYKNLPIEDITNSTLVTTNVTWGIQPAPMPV
recombinant human integrin αvβ6, sequence (P18564 22-707): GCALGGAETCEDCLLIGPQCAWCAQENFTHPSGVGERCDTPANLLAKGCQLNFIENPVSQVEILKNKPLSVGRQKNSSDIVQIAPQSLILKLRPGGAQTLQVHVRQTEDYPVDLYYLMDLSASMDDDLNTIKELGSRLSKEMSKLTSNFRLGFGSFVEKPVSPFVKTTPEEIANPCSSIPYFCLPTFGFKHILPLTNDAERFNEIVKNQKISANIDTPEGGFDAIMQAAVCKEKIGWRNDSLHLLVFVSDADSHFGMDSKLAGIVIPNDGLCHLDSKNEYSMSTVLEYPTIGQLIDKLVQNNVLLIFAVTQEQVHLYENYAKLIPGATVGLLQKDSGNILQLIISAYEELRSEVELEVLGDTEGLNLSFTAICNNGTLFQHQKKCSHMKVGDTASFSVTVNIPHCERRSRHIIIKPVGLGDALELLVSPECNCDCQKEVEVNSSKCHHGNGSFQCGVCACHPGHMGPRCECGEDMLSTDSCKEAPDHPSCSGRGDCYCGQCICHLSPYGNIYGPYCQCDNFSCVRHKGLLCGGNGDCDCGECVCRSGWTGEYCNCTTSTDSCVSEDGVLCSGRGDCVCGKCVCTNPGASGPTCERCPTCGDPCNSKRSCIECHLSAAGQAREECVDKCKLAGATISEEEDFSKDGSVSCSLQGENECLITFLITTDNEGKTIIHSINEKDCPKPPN

Row | SMILES | IC50 [nM]
1 | O=C(NC(CCN1CC[C@@H](CCc2ccc3c(n2)NCCC3)C1)C(=O)O)c1ccccc1 (some centres unmarked) [3a and 3c] | < 50
2 | O=C(NC(CCN1CC[C@@H](CCc2ccc3c(n2)NCCC3)C1)C(=O)O)C1CCN(C2CC2)CC1 (some centres unmarked) [23a and 23c] | 50 to 250
3 | CC(C)(C)OC(=O)N[C@@H](CCN1CC[C@@H](CCc2ccc3c(n2)NCCC3)C1)C(=O)O [Compound 2a, (S)-2-((tert-butoxycarbonyl)amino)-4-((R)-3-(2-(5,6,7,8-tetrahydro-1,8-naphthyridin-2-yl)ethyl)pyrrolidin-1-yl)butanoic acid] | < 50
4 | O=C(N[C@@H](CCN1CC[C@@H](CCc2ccc3c(n2)NCCC3)C1)C(=O)O)c1cccc(F)c1Cl [Compound 5a, (S)-2-(2-chloro-3-fluorobenzamido)-4-((R)-3-(2-(5,6,7,8-tetrahydro-1,8-naphthyridin-2-yl)ethyl)pyrrolidin-1-yl)butanoic acid] | < 50
5 | O=C(N[C@@H](CCN1CC[C@@H](CCc2ccc3c(n2)NCCC3)C1)C(=O)O)c1c(Cl)cccc1Cl [Compound 6a, (S)-2-(2,6-dichlorobenzamido)-4-((R)-3-(2-(5,6,7,8-tetrahydro-1,8-naphthyridin-2-yl)ethyl)pyrrolidin-1-yl)butanoic acid] | < 50
6 | O=C(N[C@@H](CCN1CC[C@@H](CCc2ccc3c(n2)NCCC3)C1)C(=O)O)c1cccc(C(F)(F)F)c1 [Compound 9a, (S)-4-((R)-3-(2-(5,6,7,8-tetrahydro-1,8-naphthyridin-2-yl)ethyl)pyrrolidin-1-yl)-2-(3-(trifluoromethyl)benzamido)butanoic acid] | < 50
7 | Cc1cc(C)n(-c2cccc(C(=O)N[C@@H](CCN3CCC(CCc4ccc5c(n4)NCCC5)CC3)C(=O)O)c2)n1 [Compound 12a, (S)-2-(3-(3,5-dimethyl-1H-pyrazol-1-yl)benzamido)-4-(4-(2-(5,6,7,8-tetrahydro-1,8-naphthyridin-2-yl)ethyl)piperidin-1-yl)butanoic acid] | > 1000
8 | O=C(N[C@@H](CCN1CC[C@@H](CCc2ccc3c(n2)NCCC3)C1)C(=O)O)c1ccccn1 [Compound 17a, (S)-2-(picolinamido)-4-((R)-3-(2-(5,6,7,8-tetrahydro-1,8-naphthyridin-2-yl)ethyl)pyrrolidin-1-yl)butanoic acid] | 50 to 250
9 | O=C(N[C@@H](CCN1CC[C@@H](CCc2ccc3c(n2)NCCC3)C1)C(=O)O)c1ccncc1 [Compound 18a, (S)-2-(isonicotinamido)-4-((R)-3-(2-(5,6,7,8-tetrahydro-1,8-naphthyridin-2-yl)ethyl)pyrrolidin-1-yl)butanoic acid] | < 50
10 | O=C(N[C@@H](CCN1CC[C@@H](CCc2ccc3c(n2)NCCC3)C1)C(=O)O)c1cccnc1 [Compound 19a, (S)-2-(nicotinamido)-4-((R)-3-(2-(5,6,7,8-tetrahydro-1,8-naphthyridin-2-yl)ethyl)pyrrolidin-1-yl)butanoic acid] | 50 to 250
11 | Cn1ncc2ccc(C(=O)N[C@@H](CCN3CC[C@@H](CCc4ccc5c(n4)NCCC5)C3)C(=O)O)cc21 [Compound 24a, (S)-2-(1-methyl-1H-indazole-6-carboxamido)-4-((R)-3-(2-(5,6,7,8-tetrahydro-1,8-naphthyridin-2-yl)ethyl)pyrrolidin-1-yl)butanoic acid] | < 50
12 | O=C(N[C@@H](CCN1CC[C@@H](CCc2ccc3c(n2)NCCC3)C1)C(=O)O)c1cccc2cn[nH]c12 [Compound 26a, (S)-2-(1H-indazole-7-carboxamido)-4-((R)-3-(2-(5,6,7,8-tetrahydro-1,8-naphthyridin-2-yl)ethyl)pyrrolidin-1-yl)butanoic acid] | < 50
13 | Cn1ncc2c(C(=O)N[C@@H](CCN3CC[C@@H](CCc4ccc5c(n4)NCCC5)C3)C(=O)O)cccc21 [Compound 27a, (S)-2-(1-methyl-1H-indazole-4-carboxamido)-4-((R)-3-(2-(5,6,7,8-tetrahydro-1,8-naphthyridin-2-yl)ethyl)pyrrolidin-1-yl)butanoic acid] | < 50

Continued, values first:

Row | IC50 [nM] | SMILES
14 | < 50 | Cc1cccc(C)c1C(=O)NC(CCN1CC[C@@H](CCc2ccc3c(n2)NCCC3)C1)C(=O)O (some centres unmarked) [4a and 4c]
15 | < 50 | N#Cc1cc(Cl)c(C(=O)NC(CCN2CC[C@@H](CCc3ccc4c(n3)NCCC4)C2)C(=O)O)c(Cl)c1 (some centres unmarked) [7a and 7c]
16 | < 50 | Cc1cc(C)n(-c2cccc(C(=O)NC(CCN3CC[C@@H](CCc4ccc5c(n4)NCCC5)C3)C(=O)O)c2)n1 (some centres unmarked) [13a and 13c]
17 | < 50 | O=C(NC(CCN1CC[C@@H](CCc2ccc3c(n2)NCCC3)C1)C(=O)O)c1c(Cl)cncc1Cl (some centres unmarked) [20a and 20c]
18 | < 50 | O=C(NC(CCN1CC[C@@H](CCc2ccc3c(n2)NCCC3)C1)C(=O)O)c1ccc2ocnc2c1 (some centres unmarked) [31a and 31c]
19 | < 50 | CC(C)(C)C(=O)N[C@H](CCN1CC[C@@H](CCc2ccc3c(n2)NCCC3)C1)C(=O)O [Compound 1c, (R)-2-pivalamido-4-((R)-3-(2-(5,6,7,8-tetrahydro-1,8-naphthyridin-2-yl)ethyl)pyrrolidin-1-yl)butanoic acid]
20 | 250 to 1000 | O=C(N[C@H](CCN1CC[C@@H](CCc2ccc3c(n2)NCCC3)C1)C(=O)O)c1c(Cl)cccc1Cl [Compound 6c, (R)-2-(2,6-dichlorobenzamido)-4-((R)-3-(2-(5,6,7,8-tetrahydro-1,8-naphthyridin-2-yl)ethyl)pyrrolidin-1-yl)butanoic acid]
21 | < 50 | O=C(N[C@@H](CCN1CC[C@@H](CCc2ccc3c(n2)NCCC3)C1)C(=O)O)c1ccccc1C(F)(F)F [Compound 8a, (S)-4-((R)-3-(2-(5,6,7,8-tetrahydro-1,8-naphthyridin-2-yl)ethyl)pyrrolidin-1-yl)-2-(2-(trifluoromethyl)benzamido)butanoic acid]
22 | < 50 | O=C(N[C@@H](CCN1CC[C@@H](CCc2ccc3c(n2)NCCC3)C1)C(=O)O)c1ccc(C(F)(F)F)cc1 [Compound 10a, (S)-4-((R)-3-(2-(5,6,7,8-tetrahydro-1,8-naphthyridin-2-yl)ethyl)pyrrolidin-1-yl)-2-(4-(trifluoromethyl)benzamido)butanoic acid]
23 | < 50 | O=C(N[C@@H](CCN1CC[C@@H](CCc2ccc3c(n2)NCCC3)C1)C(=O)O)c1cc(OC(F)(F)F)ccc1Cl [Compound 11a]
24 | < 50 | Cc1cc(C)n(-c2cccc(C(=O)N[C@@H](CCN3CC[C@@H](CCc4ccc5c(n4)NCCC5)C3)C(=O)O)c2)n1 [Compound 13a, (S)-2-(3-(3,5-dimethyl-1H-pyrazol-1-yl)benzamido)-4-((R)-3-(2-(5,6,7,8-tetrahydro-1,8-naphthyridin-2-yl)ethyl)pyrrolidin-1-yl)butanoic acid]
25 | < 50 | Cc1cc(C)n(-c2cccc(C(=O)N[C@H](CCN3CC[C@@H](CCc4ccc5c(n4)NCCC5)C3)C(=O)O)c2)n1 [Compound 13c, (R)-2-(3-(3,5-dimethyl-1H-pyrazol-1-yl)benzamido)-4-((R)-3-(2-(5,6,7,8-tetrahydro-1,8-naphthyridin-2-yl)ethyl)pyrrolidin-1-yl)butanoic acid]
26 | 50 to 250 | O=C(N[C@@H](CCN1CC[C@@H](CCc2ccc3c(n2)NCCC3)C1)C(=O)O)c1ccccc1N1CCOCC1 [Compound 14a, (S)-2-(2-morpholinobenzamido)-4-((R)-3-(2-(5,6,7,8-tetrahydro-1,8-naphthyridin-2-yl)ethyl)pyrrolidin-1-yl)butanoic acid]
27 | < 50 | O=C(N[C@@H](CCN1CC[C@@H](CCc2ccc3c(n2)NCCC3)C1)C(=O)O)c1cccc(N2CCOCC2)c1 [Compound 15a, (S)-2-(3-morpholinobenzamido)-4-((R)-3-(2-(5,6,7,8-tetrahydro-1,8-naphthyridin-2-yl)ethyl)pyrrolidin-1-yl)butanoic acid]
28 | > 1000 | O=C(N[C@@H](CCN1CC[C@@H](CCc2ccc3c(n2)NCCC3)C1)C(=O)O)c1ccc(N2CCOCC2)cc1 [Compound 16a, (S)-2-(4-morpholinobenzamido)-4-((R)-3-(2-(5,6,7,8-tetrahydro-1,8-naphthyridin-2-yl)ethyl)pyrrolidin-1-yl)butanoic acid]
29 | < 50 | O=C(N[C@@H](CCN1CC[C@@H](CCc2ccc3c(n2)NCCC3)C1)C(=O)O)C1CCC(F)(F)CC1 [Compound 21a, (S)-2-(4,4-difluorocyclohexane-1-carboxamido)-4-((R)-3-(2-(5,6,7,8-tetrahydro-1,8-naphthyridin-2-yl)ethyl)pyrrolidin-1-yl)butanoic acid]
30 | < 50 | O=C(N[C@H](CCN1CC[C@@H](CCc2ccc3c(n2)NCCC3)C1)C(=O)O)C1CCC(F)(F)CC1 [Compound 21c, (R)-2-(4,4-difluorocyclohexane-1-carboxamido)-4-((R)-3-(2-(5,6,7,8-tetrahydro-1,8-naphthyridin-2-yl)ethyl)pyrrolidin-1-yl)butanoic acid]
31 | 50 to 250 | CC1(C(=O)N[C@@H](CCN2CC[C@@H](CCc3ccc4c(n3)NCCC4)C2)C(=O)O)CCOCC1 [Compound 22a, (S)-2-(4-methyltetrahydro-2H-pyran-4-carboxamido)-4-((R)-3-(2-(5,6,7,8-tetrahydro-1,8-naphthyridin-2-yl)ethyl)pyrrolidin-1-yl)butanoic acid]
32 | 50 to 250 | Cn1ncc2cc(C(=O)N[C@@H](CCN3CC[C@@H](CCc4ccc5c(n4)NCCC5)C3)C(=O)O)ccc21 [Compound 25a, (S)-2-(1-methyl-1H-indazole-5-carboxamido)-4-((R)-3-(2-(5,6,7,8-tetrahydro-1,8-naphthyridin-2-yl)ethyl)pyrrolidin-1-yl)butanoic acid]

Reference: US10696672B2 (Pliant Therapeutics, Inc., priority 2016, dated 2020)
